“Also recorded” adds a separate entry of the source.
How the values were obtained:
[1] = test system: allogeneic T cell proliferation; test: Mixed leukocyte reaction (MLR), 3H-thymidine uptake; type: cell-based, mouse
Text: Lymph nodes (LNs) were harvested from B6 mice and T-cells were purified using by negative selection using PE-conjugated anti-CD19, anti-CD11c, anti-NK1.1 and anti-PE magnetic beads (Miltenyi Biotech). Purity was routinely >95%. Spleens were harvested from BALB/c mice, T-cell depleted (anti-Thy1.1), and irradiated (3000 cGy). B6 T-cells were mixed at a 1:1 ratio with BALB/c splenic stimulators and plated in a 96 well round bottom plate (10^5 T-cells/well) or in the lower chamber of a 24 well plate TransWell insert (10^6 T-cells/well). MAPCs were irradiated (3000 cGy) and plated in a 96 well round bottom plate (10^4/well, 1:10) or in a 24 well TransWell plate (10^5/well, 1:10). Cells were incubated in “T-cell media” in 200 μl/well (96 well) or 800 μl/well (24 well) of RPMI 1640 (Invitrogen, Carlsbad, Calif.) supplemented with 10% FCS, […] 2-ME (Sigma-Aldrich), 10 mM HEPES buffer (Invitrogen), 1 mM sodium pyruvate (Invitrogen), amino acid supplements (1.5 mM L-glutamine, L-arginine, L-asparagine) (Sigma-Aldrich), 100 U/ml penicillin, […] streptomycin (Sigma-Aldrich). Cells were pulsed with ^3H-thymidine (1 μCi/well) 16-18 hours prior to harvesting and counted in the absence of scintillation fluid on a β-plate reader. […] Trypan blue exclusion was used to assess effects on live cells. […]

[2] = cited from earlier work
[3] = test system: PGE2; test: PGE2 quantification in MAPC culture supernatant (PGE2 assay kit); type: cell-based, mouse; conditions: overnight treatment of MAPCs, 5 μM, for the period of the MLR culture (9 days)
Text: Lymph nodes (LNs) were harvested from B6 mice and T-cells were purified using by negative selection using PE-conjugated anti-CD19, anti-CD11c, anti-NK1.1 and anti-PE magnetic beads (Miltenyi Biotech). Purity was routinely >95%. Spleens were harvested from BALB/c mice, T-cell depleted (anti-Thy1.1), and irradiated (3000 cGy). B6 T-cells were mixed at a 1:1 ratio with BALB/c splenic stimulators and plated in a 96 well round bottom plate (10^5 T-cells/well) or in the lower chamber of a 24 well plate TransWell insert (10^6 T-cells/well). MAPCs were irradiated (3000 cGy) and plated in a 96 well round bottom plate (10^4/well, 1:10) or in a 24 well TransWell plate (10^5/well, 1:10). […] Cells were pulsed with ^3H-thymidine (1 μCi/well) 16-18 hours prior to harvesting and counted in the absence of scintillation fluid on a β-plate reader. […]
Quantitative determination of PGE2 in cell culture supernatants was performed using PGE2 assay kit (R&D Systems) by following manufacturer's instructions. Quantities of IL-10, TGF-β, IL-2, TNF-α, IFN-γ, and IL-12 were determined using Luminex technology (R&D Systems). […] The color development is stopped, and the absorbance is read at 450 nm. […]

With `Cn1cc(C[C@@H](N)C(=O)O)c2ccccc21` [1MT, 1-methyl-D-tryptophan] as the compound, how does the “additive effect with indomethacin pre-treatment of MAPCs” value ([1]; 200 μM 1MT in co-culture plus MAPCs pre-treated with 5 μM indomethacin) read?
The value was “little/no additive effect”.

What about the “T-cell proliferation in MLR-MAPC co-cultures with IDO inhibitor” value ([1]; 200 μM in culture media) of the same compound?
The value was “did not increase T-cell proliferation; also recorded: did not affect T-cell proliferation”.

Which half-life in vivo [2] does the source give for `CCCCC[C@H](O)/C=C/[C@H]1[C@H](O)CC(=O)[C@@H]1C/C=C\CCCC(=O)O` [PGE2, prostaglandin E2] here?
The half-life in vivo was roughly 30 s.

With `COc1ccc2c(c1)c(CC(=O)O)c(C)n2C(=O)c1ccc(Cl)cc1` [indomethacin] as the compound, how does the “upstream synthesis of PGE2 by MAPCs” value [3] read?
The value was “potently inhibited”.
